In brackets after ≈: the same amount, converted by molar mass.

From patent US4156724A, “N-acylamino-alpha-arylacetamido cephalosporins and antibacterial compositions and methods containing them” (Sumitomo Chemical Company, Limited, priority 1974, dated 1979) come the findings set out here.

What all share (format): cell-based
For experiment [1], the system named is Enterobacter aerogeneus No. 75. The experiment is described as follows: Minimum Inhibitory Concentration, Enterobacter aerogeneus No. 75. The conditions noted are these: Enterobacter aerogeneus No. 75; for MIC: read-out: Minimum Inhibitory Concentration. The protocol:
(§1) anti-microbial activity tests were carried out on the compounds obtained in the Examples.

The test system of experiment [2] is Serratia No. 72. Nature of the experiment: Minimum Inhibitory Concentration, Serratia No. 72. How it is done:
as §1

The test system of experiment [3] is Staphylococcus aureus FS 289. Nature of the experiment: Minimum Inhibitory Concentration, Staphylococcus aureus FS 289. To be noted: Staphylococcus aureus FS 289, strain resistant to penicillin; for MIC: FS289, read-out: Minimum Inhibitory Concentration. How it is done: as §1
*Staphylococcus aureus FS 289: strain resistant to penicillin

For experiment [4], the system named is Staphylococcus aureus 209 P. Nature of the experiment: Minimum Inhibitory Concentration, Staphylococcus aureus 209 P. To be noted: Staphylococcus aureus 209 P; for MIC: read-out: Minimum Inhibitory Concentration. How it is done: as §1
Experiment [5] concerns Klebsiella pneumoniae 602. Nature of the experiment: Minimum Inhibitory Concentration, Klebsiella pneumoniae 602. The conditions noted are these: for Minimum Inhibitory Concentration: Klebsiella pneumoniae 602; for MIC: Klebsiella pneumoniae, 602, Klebsiella pneumoniae 602, read-out: Minimum Inhibitory Concentration. How it is done:
as §1

The test system of experiment [6] is Pseudomonas aeruginosa 104. The experiment is described as follows: Minimum Inhibitory Concentration, Pseudomonas aeruginosa 104. The conditions noted are these: Pseudomonas aeruginosa 104; for MIC: read-out: Minimum Inhibitory Concentration. The protocol: as §1
The test system of experiment [7] is Proteus vulgaris HX 19. The experiment is described as follows: Minimum Inhibitory Concentration, Proteus vulgaris HX 19. To be noted: Proteus vulgaris HX 19; for MIC: HX19, read-out: Minimum Inhibitory Concentration. How it is done: as §1
Experiment [8] relates to Escherichia coli NIHJ. Nature of the experiment: Minimum Inhibitory Concentration, Escherichia coli NIHJ. To be noted: Escherichia coli NIHJ; for MIC: read-out: Minimum Inhibitory Concentration. How it is done: as §1

For the compound `CC(=O)OCC1=C(C(=O)[O-])N2C(=O)C(NC(=O)C(NC(=O)c3cnc4cccnc4c3O)c3cc(Cl)c(O)c(Cl)c3)C2SC1.[Na+]` (stereo not shown) [Example 144], the “Minimum Inhibitory Concentration” value in experiment [1] turned out to be 12.5 µg/mL; in experiment [2], 100 µg/mL; in experiment [3] it was 12.5 µg/mL; in experiment [4], 3.13 µg/mL; in experiment [5], 6.25 µg/mL; in experiment [6], 6.25 µg/mL. For the same compound, the figures for the “Minimum Inhibitory Concentration” value in experiment [7] and in experiment [8] were 1.56 µg/mL and 6.25 µg/mL, respectively.
Regarding `CC(=O)OCC1=C(C(=O)[O-])N2C(=O)C(NC(=O)C(NC(=O)c3cnc4cccnc4c3O)c3ccc(O)c(F)c3)C2SC1.[Na+]` (stereo not shown) [Example 145], the “Minimum Inhibitory Concentration” value came out at 12.5 µg/mL in experiment [1]; 100 µg/mL in experiment [2]; 6.25 µg/mL in experiment [3]; 0.78 µg/mL in experiment [4]; 3.13 µg/mL in experiment [5]; 6.25 µg/mL in experiment [6]. Further, the “Minimum Inhibitory Concentration” value came out at 0.39 µg/mL in experiment [7] and 3.13 µg/mL in experiment [8].
`CSc1cnc2c(O)c(C(=O)N[C@@H](C(=O)NC3C(=O)N4C(C(=O)O)=C(CSc5nnnn5C)CSC34)c3ccc(O)cc3)cnc2n1` (stereo partly shown) [Example 146]: the MIC in experiment [1] was 6.25 µg/mL (≈ 8.97 µM); in experiment [2] it was 25 µg/mL (≈ 35.9 µM); in experiment [3] it was 12.5 µg/mL (≈ 17.9 µM); in experiment [4], 0.78 µg/mL (≈ 1.12 µM); in experiment [5], 3.13 µg/mL (≈ 4.49 µM); in experiment [6], 3.13 µg/mL (≈ 4.49 µM). For the same compound, the MIC in experiment [7] and in experiment [8] was 1.56 µg/mL (≈ 2.24 µM) in each case.
Regarding `Cn1nnnc1SCC1=C(C(=O)O)N2C(=O)C(NC(=O)[C@H](NC(=O)c3cnc4nc(N5CCCC5)cnc4c3O)c3ccc(O)cc3)C2SC1` (stereo partly shown) [Example 147], the MIC in experiment [1] stood at 6.25 µg/mL (≈ 8.68 µM); in experiment [2], 25 µg/mL (≈ 34.7 µM); in experiment [3], 12.5 µg/mL (≈ 17.4 µM); in experiment [4], 1.56 µg/mL (≈ 2.17 µM); in experiment [5], 3.13 µg/mL (≈ 4.35 µM); in experiment [6], 3.13 µg/mL (≈ 4.35 µM). For the same compound, the MIC in experiment [7] was found to be 1.56 µg/mL (≈ 2.17 µM); in experiment [8] it was 3.13 µg/mL (≈ 4.35 µM).
Regarding `Cc1nnc(SCC2=C(C(=O)O)N3C(=O)C(NC(=O)[C@H](NC(=O)c4cnc5nc(C)c(C)nc5c4O)c4ccc(O)cc4)C3SC2)s1` (stereo partly shown) [Example 148], the MIC in experiment [1] turned out to be 6.25 µg/mL (≈ 9 µM); in experiment [2], 25 µg/mL (≈ 36 µM); in experiment [3], 12.5 µg/mL (≈ 18 µM); in experiment [4], 1.56 µg/mL (≈ 2.25 µM); in experiment [5], 3.13 µg/mL (≈ 4.51 µM); in experiment [6], 3.13 µg/mL (≈ 4.51 µM). In addition, the figures for the MIC in experiment [7] and in experiment [8] were 1.56 µg/mL (≈ 2.25 µM) and 3.13 µg/mL (≈ 4.51 µM), respectively.
For the compound `O=C(O)C1=C(CSc2ccc(O)nn2)CSC2C(NC(=O)[C@H](NC(=O)c3cnc4cccnc4c3O)c3ccc(O)c(Cl)c3)C(=O)N12` (stereo partly shown) [Example 149], the MIC worked out at 6.25 µg/mL (≈ 8.98 µM) in experiment [1]; 25 µg/mL (≈ 35.9 µM) in experiment [2]; 6.25 µg/mL (≈ 8.98 µM) in experiment [3]; 0.78 µg/mL (≈ 1.12 µM) in experiment [4]; 3.13 µg/mL (≈ 4.5 µM) in experiment [5]; 6.25 µg/mL (≈ 8.98 µM) in experiment [6]. Besides, the MIC in experiment [7] stood at 0.39 µg/mL (≈ 0.56 µM); in experiment [8], 3.13 µg/mL (≈ 4.5 µM).
Turning to `O=C(O)C1=C(CSc2nnc(CO)s2)CSC2C(NC(=O)[C@H](NC(=O)c3cnc4cccnc4c3O)c3ccc(O)cc3)C(=O)N12` (stereo partly shown) [Example 150], the MIC in experiment [1] was determined as 6.25 µg/mL (≈ 9.17 µM); in experiment [2], 12.5 µg/mL (≈ 18.3 µM); in experiment [3], 6.25 µg/mL (≈ 9.17 µM); in experiment [4], 0.78 µg/mL (≈ 1.14 µM); in experiment [5], 1.56 µg/mL (≈ 2.29 µM); in experiment [6], 3.13 µg/mL (≈ 4.59 µM). Besides, the MIC amounted to 0.2 µg/mL (≈ 0.293 µM) in experiment [7] and 3.13 µg/mL (≈ 4.59 µM) in experiment [8].
For `CN(C)c1ccc2ncc(C(=O)N[C@@H](C(=O)NC3C(=O)N4C(C(=O)O)=C(CSc5n[nH]c(=O)s5)CSC34)c3ccc(O)c(F)c3)c(O)c2n1` (stereo partly shown) [Example 151], the MIC in experiment [1] is 6.25 µg/mL (≈ 8.58 µM); in experiment [2], 12.5 µg/mL (≈ 17.2 µM); in experiment [3] it was 6.25 µg/mL (≈ 8.58 µM); in experiment [4], 0.78 µg/mL (≈ 1.07 µM); in experiment [5], 1.56 µg/mL (≈ 2.14 µM); in experiment [6] it was 6.25 µg/mL (≈ 8.58 µM). Further, the MIC in experiment [7] is 0.39 µg/mL (≈ 0.535 µM); in experiment [8] it was 1.56 µg/mL (≈ 2.14 µM).
